The text below walks through data of patent US4305852A, “Polypeptide compositions” (American Home Products Corporation, priority 1980, dated 1981).

In experiment [1] the test system is T lymphocytes. Description: T lymphocyte proliferation, 3H-thymidine incorporation. Particulars: 48 h culture. In kind it is cell-based, male CBA/J or NZB mice. The procedure:
T lymphocytes are isolated from spleens of male CBA/J or NZB mice. Cell homogenates are prepared in Hank's balanced salt solution (HBSS). After removal of larger particles and repeated washing of the cells in HBSS they are suspended in minimum essential medium (MEM) and passed through a glass wool column to remove macrophages. The cells are then incubated on a nylon wool column at 37° C., 95% air, 5% CO2, for 45 minutes. The non-adherant T lymphocytes are then eluted from the column, counted, and adjusted to 20×10^6 cells/ml. 50 μl of cells are cultured (37° C., 95% air, 5% CO2) with compound, for 48 hours before the addition of 0.5 μCi. of 3H-thymidine for the last 16 hours of culture. The total volume of the culture system is 200 μl. The cells are then harvested on a multiple automatic sample harvester (Mash II), the glass fiber filter disks placed in 10 ml. of xylene base scintillation fluid, and counted for 1 minute in a liquid scintillation counter. Results are reported as CPM±SE.

Experiment [2] relates to cells of the B lineage. The following applies: in vitro; cited from earlier work.
In experiment [3] the test system is autologous rosette-forming cells. Particulars: in vivo, athymic mice; cited from earlier work.
Experiment [4] concerns murine prothymocytes. The following applies: in vitro; cited from earlier work.

Where a SMILES comes first, the peptide text is derived from it. Where no end group is shown, it is not given here. [ ]: non-standard residue; d: D form.

For `CC(=O)O.CC(=O)O.CC(=O)O.CC(C)[C@H](NC(=O)[C@H](CC(=O)O)NC(=O)[C@H](CCCCN)NC(=O)[C@@H](N)CCCNC(=N)N)C(=O)N[C@H](C)C(N)=O` [Arg--Lys--Asp--Val--D--Ala--NH2, L-arginyl-L-lysyl-L-aspartyl-L-valyl-D-alaninamide triacetate] (H-RKDV[dA]-NH2), the “CPM ± SE (3H-thymidine incorporation)” value in experiment [1] (0.00075 μg/culture, second experiment (blank 19275 ± 1298)) is 18983 ± 2651 CPM; in experiment [1] (0.0015 μg/culture, first experiment (blank 9876 ± 951)), 20305 ± 2347 CPM; in experiment [1] (0.0015 μg/culture, second experiment (blank 19275 ± 1298)), 22966 CPM; in experiment [1] (0.006 μg/culture, first experiment (blank 9876 ± 951)), 18640 ± 1830 CPM; in experiment [1] (0.006 μg/culture, second experiment (blank 19275 ± 1298)), 28559 ± 3663 CPM; in experiment [1] (0.025 μg/culture, first experiment (blank 9876 ± 951)), 30181 ± 3895 CPM. The “CPM ± SE (3H-thymidine incorporation)” value was 25515 ± 2486 CPM in experiment [1] (0.025 μg/culture, second experiment (blank 19275 ± 1298)) and 21887 ± 3143 CPM in experiment [1] (0.1 μg/culture, first experiment (blank 9876 ± 951)).
Consider “RKDVY [arginyl-lysyl-aspartyl-valyl-tyrosine]”, for which the “differentiative induction of cells of the B lineage” value in experiment [2] is “inhibited differentiative induction of cells of the B lineage”. In experiment [3], the “numbers of autologous rosette-forming cells in spleens” value was “reducing the high numbers of autologous rosette-forming cells”. Further, in experiment [4], the “differentiation of murine prothymocytes to thymocytes” value was “induced the differentiation of murine prothymocytes to thymocytes”.
